Experimental findings from patent US20200188477A1, “A MEDICAMENT FOR THE TREATMENT OF DISEASES BY BIOFILM FORMING MICROORGANISMS” (priority 2017, published 2020) are described below.

Values after ≈ are worked out from the molar mass of the structure shown. Where two headings read alike, the source gives them in different places.

The subject of this test is M. smegmatis. Nature of the test: microbe, parasite or virus in culture. Format: cell-based, Mycobacterium smegmatis. The conditions noted are these: for MIC: Mycolicibacterium smegmatis.

With `CC[C@@H](CO)NCCN[C@@H](CC)CO` [ethambutol], where the note is “absence of cyclosporine A, […]”, the “concentration that inhibits culture” value came to 4 µg/mL. In addition, the “inhibitory effect on culture” value (presence of cyclosporine A, […]) was “enhanced”.

Regarding `NNC(=O)c1ccncc1` [isoniazide], the MIC reads like this: (absence of acarbose, PpiB (Tet+), read-out: MIC) 64 µg/mL (≈ 467 µM); (absence of acarbose, VC (Tet+), read-out: MIC) 16 µg/mL (≈ 117 µM); (absence of cyclosporine A, PpiB (tet+), read-out: minimum inhibitory concentration (MIC)) 64 µg/mL (≈ 467 µM); (absence of cyclosporine A, […], read-out: minimum inhibitory concentration (MIC)) 16 µg/mL (≈ 117 µM); (presence of acarbose, PpiB (Tet+), read-out: MIC) 32 µg/mL; (presence of cyclosporine A, PpiB (tet+), read-out: MIC) 32 µg/mL. Also, the MIC (presence of cyclosporine A, […], read-out: MIC) was found to be 8 µg/mL.
